# Laboratory results as given in patent US20100298234A1, “Cancer therapeutic agents comprising a ligand for the neuromedin u receptor 2 (fm4) molecule as an active ingredient” (priority 2006, published 2010).
# Key:
# [1] = target: T1, FM4 (Homo sapiens, UniProt Q9GZQ4, A395T/C204F); experiment: Intracellular Ca2+ concentration measurement (Fluo 4 AM) in FM4-expressing CHO cells; type: cell-based; details: FM4-CHO cell line, 2.5 μM NmU, FIG. 3
# T1 construct: using Pyrobest Taq polymerase (Takara) to clone the full-length FM4 gene; expressed in transfected cells
# T1 sequence (Q9GZQ4 whole entry C204F/A395T): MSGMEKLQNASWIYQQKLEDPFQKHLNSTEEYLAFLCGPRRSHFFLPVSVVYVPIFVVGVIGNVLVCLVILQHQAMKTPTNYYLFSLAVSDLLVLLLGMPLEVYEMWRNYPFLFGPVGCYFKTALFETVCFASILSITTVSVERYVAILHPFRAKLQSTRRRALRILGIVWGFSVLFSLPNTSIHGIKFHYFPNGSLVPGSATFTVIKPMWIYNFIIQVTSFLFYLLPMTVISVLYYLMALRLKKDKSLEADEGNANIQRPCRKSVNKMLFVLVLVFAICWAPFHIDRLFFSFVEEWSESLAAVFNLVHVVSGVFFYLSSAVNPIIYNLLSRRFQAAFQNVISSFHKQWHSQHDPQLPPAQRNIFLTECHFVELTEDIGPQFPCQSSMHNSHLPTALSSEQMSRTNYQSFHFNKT
# Protocol: 15 μg of linearized FM4 expression vector (pMCN-FM4) obtained by digestion with PvuI was introduced into CHO cells by electroporation (Gene Pulser; BioRad) at 1.5 kV, 25 μFD. The cells were cultured in a medium containing 500 μg/mL of G418, and G418-resistant cells were picked. NmU was added to these cells, and cell lines that reacted to NmU were selected using the increase in intracellular Ca^2+ concentration as an index.
# (§1) The cells were detached using trypsin, plated onto a 96-well plate (black plate for fluorescence measurement) at 2×10^4 cells/well, and after culturing overnight, they were used for intracellular calcium measurements. Measurement of the intracellular calcium concentration was performed as follows.
# After removing the medium, an Fluo 4 AM solution [2% FCS, 3 μM Fluo 4 AM (Molecular PROBES) in assay buffer (2 mM HEPES, 1.5 mM probenecid in HBSS)] was added at 50 μL/well. After incubation in the dark at 37° C. for 30 minutes, the cells were washed three times in the assay buffer. Then, an assay buffer that contains 2.5 μM of NmU (Funakoshi) was added, and the intracellular Ca^2+-dependent fluorescence trace at 490-nm excitation was monitored on a plate reader for fluorimetric analysis (Fusion; Perkin Elmer).
# [2] = target: T1, FM4; experiment: Intracellular Ca2+ concentration in FM4-expressing PANC1 cells (FM4-PANC1); type: cell-based; details: FM4-PANC1, NmU 1 μM, FIG. 6
# Protocol: as §1
# After removing the medium, an Fluo 4 AM solution [2% FCS, 3 μM Fluo 4 AM (Molecular PROBES) in assay buffer (2 mM HEPES, 1.5 mM probenecid in HBSS)] was added at 50 μL/well. After incubation in the dark at 37° C. for 30 minutes, the cells were washed three times in the assay buffer. […]
# In order to confirm that the NmU signaling is transmitted into the cell in the obtained FM4-expressing PANC1 cells (FM4-PANC1), whether the addition of NmU increased the intracellular Ca^2+ concentration was analyzed. […] This confirmed that in the established FM4-PANC1 cells, NmU stimulation causes the FM4-mediated signaling to be transmitted into the cell.
# [3] = test system: FM4-CHO cells; experiment: Proliferation-suppressing effect, WST-8 assay, FM4-CHO; type: cell-based, Chinese hamster; details: NmU 0.096 μM to 60 μM, 48 hours, FIG. 4A
# Protocol: FM4-CHO cells were plated onto a 96-well plate at 2×10^3 cells/well. On the following day, NmU was added to each well at various concentrations (0.096 μM to 60 μM) and the cells were cultured. 48 Hours later, the number of viable cells were analyzed by WST-8 assay (Cell counting kit-8, Dojindo Laboratories).
# [4] = test system: PANC-1; experiment: Proliferation of pancreatic cancer cell line PANC-1; type: cell-based, human; details: PANC-1, NmU 0.096 μM to 60 μM, 72 hours, FIG. 4B
# Protocol: (§2) On the following day, NmU was added to each well at 0.096 μM to 60 μM. Seventy-two hours later, the number of cells was determined.
# [5] = test system: Capan-1; experiment: Proliferation of pancreatic cancer cell line Capan-1; type: cell-based, human; details: Capan-1 (high FM4 gene expression), NmU 0.096 μM to 60 μM, 72 hours, FIG. 4B
# Protocol: as §2
# [6] = test system: PANC1 cells; experiment: Soft agar colony formation assay, parent PANC1 cells; type: cell-based, human; details: parent cell line PANC1 that does not express FM4, NmU 1 μM, one month, FIG. 7
# Protocol: (§3) To analyze the effect of NmU on the ability of this cell to form colonies, soft agar colony formation assay was performed. Soft agar colony formation assay was performed as follows.
# (§4) Base agar (0.5% agar, 1×MEM, and 10% FCS) was added to each well of a 6-well plate at 1.5 mL/well, and then 1.5 mL/well (0.5×10^4 cells/well) of PANC1 cells or FM4-PANC1 cells in the presence or absence of NmU (1 μM) in top agar (0.35% agar, 1×MEM, and 10% FCS) was added at to each of the wells. After culturing for one month, the number of colony forming cells in the soft agar was counted under a microscope.
# [7] = test system: FM4-PANC1 cells; experiment: Soft agar colony formation assay, FM4-PANC1 cells; type: cell-based, human; details: FM4-PANC1, NmU 1 μM, one month, FIG. 7
# Protocol: as §3, §4
# [8] = test system: FM4-CHO cells; experiment: Cell morphology of FM4-CHO cells under a microscope after NmU stimulation; type: cell-based, Chinese hamster; details: FM4-CHO stimulated with NmU, in approximately 12 hours, FIG. 8
# Source text: The cell morphology of FM4-CHO cells which were forced to express FM4 was observed under a microscope.
# This led to the speculation that NmU is involved in signal transduction that regulates cell adhesion and cell movement.
# [9] = test system: CHO cells; experiment: Wound healing assay (cell movement), parent CHO cells; type: cell-based, Chinese hamster; details: NmU 5 μM, serum-free medium, 24 hours, FIG. 9
# Protocol: (§5) Next, the effect of NmU on cell movement ability was analyzed by wound healing assay. Parent cell line CHO cells and FM4-CHO cells were grown to confluency in plates, and wounded with a pipette tip to make a fixed clearance between the cells. After washing the cells twice with PBS, the cells were cultured in a serum-free culture medium in the presence or absence of NmU (5 μM). Twenty-four hours later, cells that moved into the clearance between the cells were observed and photographed under a microscope.
# [10] = test system: FM4-CHO cells; experiment: Wound healing assay (cell movement), FM4-CHO cells; type: cell-based, Chinese hamster; details: NmU 5 μM, serum-free medium, 24 hours, FIG. 9
# Protocol: as §5
# [11] = test system: FM3; details: CHO, HEK-293 and COS-7 cells forced to express FM3; cited from earlier work
# [12] = target: T2, FM4 (Homo sapiens, UniProt Q9GZQ4); details: CHO, HEK-293 and COS-7 cells forced to express FM4; cited from earlier work
# T2 construct: host or cells: CHO, HEK-293 and COS-7 cells with forced expression
# T2 sequence (Q9GZQ4 whole entry): as the sequence (Q9GZQ4 whole entry C204F/A395T) above, with F204C, T395A counted along it
# [13] = administration into the cerebral ventricle; cited from earlier work
substance,measurement,setting,value
"NmU: biologically active peptide, endogenous ligand for FM3 and FM4; polypeptide of SEQ ID NO: 14; NmU (Funakoshi) used in the tests (FRVDEEFQSPFASQSRGYFLFRPRN; listed as Homo sapiens)",intracellular Ca2+ concentration,[1],quickly increased
same,intracellular Ca2+ concentration,[2],increase of the intracellular Ca^2+ concentration
same,"proliferation (number of viable cells, WST-8)",[3],suppressed proliferation of FM4-CHO at low concentration
same,proliferation (number of cells),[4],did not act at all on the proliferation
same,proliferation (number of cells),[5],proliferation-suppressing effect of NmU was observed
same,colony forming ability in soft agar,[6],did not have any effect
same,colony forming ability in soft agar,[7],colony formation-suppressing effect by NmU was confirmed
same,cell morphology,[8],significant morphological alterations of the cells such as disappearance of cell protrusions
same,cell movement,[9],did not have any effect
same,cell movement,[10],completely inhibited
same,intracellular calcium ion concentration,[11],induced increase of intracellular calcium ion concentration at the nanomolar level
same,intracellular calcium ion concentration,[12],induced increase of intracellular calcium ion concentration at the nanomolar level
same,food/feed intake,[13],significant reduction in overnight food intake and starvation-induced feeding
